The values below come from patent publication US12459914B2, “Compounds and compositions for the treatment of tumors” (FONDAZIONE ISTITUTO ITALIANO DI TECNOLOGIA, priority 2019, dated 2025).

One experiment addresses T1, BRC4/RAD51 interaction (Homo sapiens, UniProt Q06609).
T1 construct: purchased Creative Biomart (Rad51); Life Technologies (BRC4 peptide)
T1 sequence (Q06609 1-339): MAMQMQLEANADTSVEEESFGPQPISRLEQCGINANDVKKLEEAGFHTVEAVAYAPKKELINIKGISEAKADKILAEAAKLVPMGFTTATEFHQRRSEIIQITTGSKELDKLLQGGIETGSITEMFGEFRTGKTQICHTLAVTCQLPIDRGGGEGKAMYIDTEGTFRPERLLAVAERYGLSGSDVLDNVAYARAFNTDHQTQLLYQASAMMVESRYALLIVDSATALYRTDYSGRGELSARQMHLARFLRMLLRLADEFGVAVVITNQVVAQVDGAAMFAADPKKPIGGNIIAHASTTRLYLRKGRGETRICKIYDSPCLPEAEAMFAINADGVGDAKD
Briefly: Competitive ELISA assay, disruption of BRC4/RAD51 interaction. The experiment is classed as binding. Particulars: human Rad51, biotinylated BRC4 peptide. Here is the method: A competitive ELISA screening assay using biotinylated BRC4 peptide to disrupt the BRC4/RAD51 interaction was performed by modifying the method described by Rajendra et al. (Nucleic Acids Res. 38 (2010) 82-96). BRC4-biotinylated peptide (N-term Biotin[…] from Life Technologies) was used to coat 384-well plates (Nunc). After washing with PBS containing 0.05% Tween-20 (PBST), and blocking with the solution BSA 1%/PBST, overnight hybridization with human Rad51 protein (NP_002866 Creative Biomart, NY) was performed. Test compounds were added in dose-response from […] in triplicate with constant DMSO 1%. Antibody raised against Rad51 (Millipore) and HRP-secondary antibody staining to develop the 3,30,5,50-tetramethyllbenzidine signal (Sigma) quenched with 1M HCl was used as the assay readout. Colorimetric measure was read on Victor5 (PerkinElmer) plate Reader. BRC4 and Rad51 were included in the assay as positive control. Results were analyzed using GraphPad Software.
A general note: An ELISA detects its analyte on a solid surface through an enzyme-linked reagent.

A further experiment has as its system BxPC-3 cells. Briefly: Cell viability assay (CellTiter Glo). The experiment is classed as cell-based. Particulars: Homo sapiens, 72 h. As for the experimental part: BxPC-3 cells were grown in RPMI 1640 containing 10% FBS, 100 U/ml penicillin/streptomycin, 2 mM glutamine. All media and supplements were from Sigma-Aldrich. Cultures were routinely tested for Mycoplasma contamination. Treatments (Olaparib and BRCA2-Rad51 disruptors) were administered in culture medium supplemented with 0.6% DMSO. The same amount of DMSO was added to the control, untreated cultures.
Cell viability was assessed by CellTiter Glo, Luminescent Cell Viability Assay. Briefly, BxPC-3 cells (1×10^4/well) were plated in white 96-well plates with clear bottom and treated for 72 h with olaparib (10 μM) or with the BRCA2-Rad51 disruptors, given alone or in combination. After treatments, the plate was allowed to equilibrate at room temperature for 30 min and the CellTiter-Glo reactive was directly added to each well. The plate was kept on a shaker for 2 min to induce cell lysis and its luminescence was measured by using a Fluoroskan Ascent FL reader (Labsystems) using manufacturer's instructions.
Background: ATP-based viability assays read luminescence as a measure of living cells.

For the compound `O=C(O)CCC(=O)N1N=C(c2c(Cc3ccccc3)c3cc(Cl)ccc3[nH]c2=O)CC1c1ccc(-c2ccc(F)cc2)cc1` (stereo not drawn) [d.83, 4-[5-(4-benzyl-6-chloro-2-oxo-1H-quinolin-3-yl)-3-[4-(4-fluorophenyl)phenyl]-3,4-dihydropyrazol-2-yl]-4-oxo-butanoic acid], on BRC4/RAD51 interaction, the EC50 – broadly, the concentration needed to bring the measured effect to its halfway point – came out at 12 µM.

For the compound `O=C(O)CCC(=O)N1N=C(c2c(Cc3ccccc3)c3cc(Cl)ccc3[nH]c2=O)CC1c1ccc(F)cc1` (stereo not drawn) [d.50, 4-[5-(4-benzyl-6-chloro-2-oxo-1H-quinolin-3-yl)-3-(4-fluorophenyl)-3,4-dihydropyrazol-2-yl]-4-oxo-butanoic acid], the EC50 with BxPC-3 cells turned out to be 15.2 µM.

As for `CC(=O)N1N=C(c2c(-c3ccccc3)c3cc(Cl)ccc3[nH]c2=O)CC1c1ccc(-c2ccc(Cl)cc2)cc1` (stereo not drawn) [d.38, 3-[2-acetyl-3-[4-(4-chlorophenyl)phenyl]-3,4-dihydropyrazol-5-yl]-6-chloro-4-phenyl-1H-quinolin-2-one], the EC50 amounted to 45 µM at BRC4/RAD51 interaction and 18.8 µM in the experiment with BxPC-3 cells.

Take `COc1ccc(-c2ccc(C3CC(c4c(-c5ccccc5)c5cc(Cl)ccc5[nH]c4=O)=NN3C(=O)CCC(=O)O)cc2)cc1` (stereo not drawn) [d.41, 4-[5-(6-chloro-2-oxo-4-phenyl-1H-quinolin-3-yl)-3-[4-(4-methoxyphenyl)phenyl]-3,4-dihydropyrazol-2-yl]-4-oxo-butanoic acid]: the concentration giving a half-maximal response (EC50) with BxPC-3 cells was 40.6 µM. Regarding `O=C(O)CCC(=O)N1N=C(c2c(-c3ccccc3)c3cc(Cl)ccc3[nH]c2=O)CC1c1ccc(Cl)cc1` (stereo not drawn) [d.5, 4-[5-(6-chloro-2-oxo-4-phenyl-1H-quinolin-3-yl)-3-(4-chlorophenyl)-3,4-dihydropyrazol-2-yl]-4-oxo-butanoic acid], the EC50 in the experiment on BxPC-3 cells was greater than 50 µM.

Regarding `CCn1ncc2cc(C3CC(c4c(-c5ccccc5)c5cc(Cl)ccc5[nH]c4=O)=NN3C(C)=O)ccc21` (stereo not drawn) [d.32, 3-[2-acetyl-3-(1-ethylindazol-5-yl)-3,4-dihydropyrazol-5-yl]-6-chloro-4-phenyl-1H-quinolin-2-one], the EC50 in the experiment on BxPC-3 cells worked out at 27 µM.

On BRC4/RAD51 interaction, `CCC(=O)N1N=C(c2c(Cc3ccccc3)c3cc(Cl)ccc3[nH]c2=O)CC1c1ccc(F)cc1` (stereo not drawn) [d.54, 4-benzyl-6-chloro-3-[3-(4-fluorophenyl)-2-propanoyl-3,4-dihydropyrazol-5-yl]-1H-quinolin-2-one] returned an EC50 of 65 µM. Turning to `CCCn1cc(-c2ccc(C3CC(c4c(-c5ccccc5)c5cc(Cl)ccc5[nH]c4=O)=NN3C(C)=O)cc2)cn1` (stereo not drawn) [d.44, 3-[2-acetyl-3-[4-(1-propylpyrazol-4-yl)phenyl]-3,4-dihydropyrazol-5-yl]-6-chloro-4-phenyl-1H-quinolin-2-one], the EC50 at BRC4/RAD51 interaction turned out to be 46 µM.

Turning to `Cn1ccc2cc(C3CC(c4c(Cc5ccccc5)c5cc(Cl)ccc5[nH]c4=O)=NN3C(=O)CCC(=O)O)ccc21` (stereo not drawn) [d.69, 4-[5-(4-benzyl-6-chloro-2-oxo-1H-quinolin-3-yl)-3-(1-methylindol-5-yl)-3,4-dihydropyrazol-2-yl]-4-oxo-butanoic acid], a half-maximal response on BRC4/RAD51 interaction (EC50) required 10 µM. Regarding `CC(=O)N1N=C(c2c(-c3ccccc3)c3cc(Cl)ccc3[nH]c2=O)CC1c1ccc(C)cc1` (stereo not drawn) [d.49, 3-[2-acetyl-3-(p-tolyl)-3,4-dihydropyrazol-5-yl]-6-chloro-4-phenyl-1H-quinolin-2-one], the EC50 with BxPC-3 cells was found to be 15.2 µM. Turning to `COc1ccc(C2CC(c3c(CCc4ccccc4)c4cc(Cl)ccc4[nH]c3=O)=NN2C(=O)CCC(=O)O)cc1` (stereo not drawn) [d.105, 4-[5-[6-chloro-2-oxo-4-(2-phenylethyl)-1H-quinolin-3-yl]-3-(4-methoxyphenyl)-3,4-dihydropyrazol-2-yl]-4-oxo-butanoic acid], the EC50 in the experiment on BxPC-3 cells was 29.6 µM. Still for that read-out and setting: in the case of `O=C(O)CCC(=O)N1N=C(c2c(-c3ccccc3)c3cc(Cl)ccc3[nH]c2=O)CC1c1ccc(-c2ccc(Br)cc2)cc1` (stereo not drawn) [d.39, 4-[3-[4-(4-bromophenyl)phenyl]-5-(6-chloro-2-oxo-4-phenyl-1H-quinolin-3-yl)-3,4-dihydropyrazol-2-yl]-4-oxo-butanoic acid] it was 43 µM; in that of `CC(=O)N1N=C(c2c(-c3ccccc3)c3cc(Cl)ccc3[nH]c2=O)CC1c1ccc(F)cc1` (stereo not drawn) [d.2, 3-[2-acetyl-3-(4-fluorophenyl)-3,4-dihydropyrazol-5-yl]-6-chloro-4-phenyl-1H-quinolin-2-one], 37 µM.

Regarding `O=C(O)CCC(=O)N1N=C(c2c(Cc3ccccc3)c3cc(Cl)ccc3[nH]c2=O)CC1c1cccnc1` (stereo not drawn) [d.100, 4-[5-(4-benzyl-6-chloro-2-oxo-1H-quinolin-3-yl)-3-(3-pyridyl)-3,4-dihydropyrazol-2-yl]-4-oxo-butanoic acid], a half-maximal response at BRC4/RAD51 interaction (EC50) required 15 µM. In the case of `COc1ccc(C2CC(c3c(Cc4ccccc4)c4cc(Cl)ccc4[nH]c3=O)=NN2C(C)=O)cc1` (stereo not drawn) [d.52, 3-[2-acetyl-3-(4-methoxyphenyl)-3,4-dihydropyrazol-5-yl]-4-benzyl-6-chloro-1H-quinolin-2-one], the EC50 in the experiment on BxPC-3 cells came out at 13.7 µM.

Take `Cn1ncc2cc(C3CC(c4c(Cc5ccccc5)c5cc(Cl)ccc5[nH]c4=O)=NN3C(=O)CCC(=O)O)ccc21` (stereo not drawn) [d.73, 4-[5-(4-benzyl-6-chloro-2-oxo-1H-quinolin-3-yl)-3-(1-methylindazol-5-yl)-3,4-dihydropyrazol-2-yl]-4-oxo-butanoic acid]: the EC50 in the experiment on BxPC-3 cells was found to be 81.8 µM. `CCC(=O)N1N=C(c2c(-c3ccccc3)c3cc(Cl)ccc3[nH]c2=O)CC1c1ccc(F)cc1` (stereo not drawn) [d.3, 6-chloro-3-[3-(4-fluorophenyl)-2-propanoyl-3,4-dihydropyrazol-5-yl]-4-phenyl-1H-quinolin-2-one] came in with an EC50 at BRC4/RAD51 interaction of 34 µM. With `CCC(=O)N1N=C(c2c(-c3ccccc3)c3cc(Cl)ccc3[nH]c2=O)CC1c1ccc(Cl)cc1` (stereo not drawn) [d.7, 6-chloro-3-[3-(4-chlorophenyl)-2-propanoyl-3,4-dihydropyrazol-5-yl]-4-phenyl-1H-quinolin-2-one], the EC50 in the experiment on BxPC-3 cells was 20 µM. `COc1ccc(C2CC(c3c(Cc4ccccc4)c4cc(Cl)ccc4[nH]c3=O)=NN2C(=O)CCC(=O)O)cc1` (stereo not drawn) [d.61, 4-[5-(4-benzyl-6-chloro-2-oxo-1H-quinolin-3-yl)-3-(4-methoxyphenyl)-3,4-dihydropyrazol-2-yl]-4-oxo-butanoic acid] registered an EC50 at BRC4/RAD51 interaction greater than 100 µM. For the compound `O=C(O)CCC(=O)N1N=C(c2c(Cc3ccccc3)c3cc(Cl)ccc3[nH]c2=O)CC1c1ccc(Br)cc1` (stereo not drawn) [d.58, 4-[5-(4-benzyl-6-chloro-2-oxo-1H-quinolin-3-yl)-3-(4-bromophenyl)-3,4-dihydropyrazol-2-yl]-4-oxo-butanoic acid], the concentration for a half-maximal effect (EC50) with BxPC-3 cells was 23.6 µM. Regarding `CCn1ncc2cc(-c3ccc(C4CC(c5c(-c6ccccc6)c6cc(Cl)ccc6[nH]c5=O)=NN4C(=O)CCC(=O)O)cc3)ccc21` (stereo not drawn) [d.45, 4-[5-(6-chloro-2-oxo-4-phenyl-1H-quinolin-3-yl)-3-[4-(1-ethylindazol-5-yl)phenyl]-3,4-dihydropyrazol-2-yl]-4-oxo-butanoic acid], at BRC4/RAD51 interaction, the EC50 was 15 µM.

Take `COc1ccc(-c2ccc(C3CC(c4c(Cc5ccccc5)c5cc(Cl)ccc5[nH]c4=O)=NN3C(C)=O)cc2)cc1` (stereo not drawn) [d.89, 3-[2-acetyl-3-[4-(4-methoxyphenyl)phenyl]-3,4-dihydropyrazol-5-yl]-4-benzyl-6-chloro-1H-quinolin-2-one]: on BRC4/RAD51 interaction, the EC50 is 105 µM. Take `COc1ccc(-c2ccc(C3CC(c4c(-c5ccccc5)c5cc(Cl)ccc5[nH]c4=O)=NN3C(C)=O)cc2)cc1` (stereo not drawn) [d.42, 3-[2-acetyl-3-[4-(4-methoxyphenyl)phenyl]-3,4-dihydropyrazol-5-yl]-6-chloro-4-phenyl-1H-quinolin-2-one]: the midpoint of the response at BRC4/RAD51 interaction, the EC50, lay at 70 µM. As to `CC(=O)N1N=C(c2c(-c3ccccc3)c3cc(Cl)ccc3[nH]c2=O)CC1c1ccc(Cl)cc1` (stereo not drawn) [d.6, 3-[2-acetyl-3-(4-chlorophenyl)-3,4-dihydropyrazol-5-yl]-6-chloro-4-phenyl-1H-quinolin-2-one], the EC50 with BxPC-3 cells is 20 µM. On BRC4/RAD51 interaction, `CCC(=O)N1N=C(c2c(-c3ccccc3)c3cc(Cl)ccc3[nH]c2=O)CC1c1ccc(Br)cc1` (stereo not drawn) [d.10, 3-[3-(4-bromophenyl)-2-propanoyl-3,4-dihydropyrazol-5-yl]-6-chloro-4-phenyl-1H-quinolin-2-one] gave a half-maximal effective concentration (EC50) of 19 µM. Still for that read-out and setting: in the case of `O=C(O)CCC(=O)N1N=C(c2c(-c3ccccc3)c3cc(Cl)ccc3[nH]c2=O)CC1c1ccccn1` (stereo not drawn) [d.99, 4-(3-(6-chloro-2-oxo-4-phenyl-1,2-dihydroquinolin-3-yl)-5-(pyridin-2-yl)-4,5-dihydro-1H-pyrazol-1-yl)-4-oxobutanoic acid] it was 190 µM.
